Experimental data taken from ChEMBL document CHEMBL5335792, “Chemical exploration of TGR5 functional hot-spots: Synthesis and structure-activity relationships of C7- and C23-Substituted cholic acid derivatives” (Eur J Med Chem, 2023).

Assay: physchem
Conditions: 0.15 M sodium salt

C[C@H](CCC(=O)O)[C@H]1CC[C@H]2[C@@H]3[C@H](O)C[C@@H]4C[C@H](O)CC[C@]4(C)[C@H]3C[C@H](O)[C@]12C [CHOLIC ACID] showed a solubility of 12 mM.
